The source made the active and inactive calls. No cut-off for these calls is given here.
Columns and labels:
A 172 [1] = assay: Cytotoxicity against human A 172 cells assessed as reduction in cell viability measured after 6 hrs by MTS assay; assay type: functional; conditions: read-out: LD50 (the source's name)
[2] = target: T1, Tryptophan 2,3-dioxygenase (Homo sapiens, UniProt P48775); assay: Inhibition of human TDO2 expressed in mouse P815B cells using L-tryptophan as substrate incubated for 7 hrs by UPLC analysis; assay type: cell-based
T1 sequence (P48775 whole entry): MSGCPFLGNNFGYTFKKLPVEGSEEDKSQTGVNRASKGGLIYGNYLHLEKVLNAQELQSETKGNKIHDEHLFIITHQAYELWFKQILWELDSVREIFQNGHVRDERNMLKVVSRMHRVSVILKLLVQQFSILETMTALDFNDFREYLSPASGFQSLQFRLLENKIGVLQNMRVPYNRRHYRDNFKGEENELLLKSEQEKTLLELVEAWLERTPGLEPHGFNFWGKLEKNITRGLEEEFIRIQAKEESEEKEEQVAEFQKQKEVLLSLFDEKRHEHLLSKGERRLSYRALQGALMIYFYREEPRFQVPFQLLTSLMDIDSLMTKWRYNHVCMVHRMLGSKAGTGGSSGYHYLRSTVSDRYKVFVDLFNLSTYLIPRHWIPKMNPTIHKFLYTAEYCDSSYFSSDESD

[3] = Cytotoxicity against HEK293 cells assessed as reduction in cell viability measured after 6 hrs by MTS assay; assay type: toxicity, cell-based; conditions: human, read-out: LD50
P815B [4] = assay: Cytotoxicity against mouse P815B cells assessed as reduction in cell viability at 30 uM measured after 24 hrs by MTS assay; assay type: functional, cell-based
[5] = Lipophilicity, logKw of compound in methanol and water buffer at pH 2.3 by HPLC-UV analysis; assay type: physicochemical
[6] = Cytotoxicity against mouse P815B cells assessed as reduction in cell viability measured after 6 hrs by MTS assay; assay type: functional; conditions: read-out: LD50 (the source's name)
[7] = Cytotoxicity against mouse P815B cells assessed as reduction in cell viability measured after 24 hrs by MTS assay; assay type: functional; conditions: read-out: LD50 (the source's name)
[8] = Metabolic stability in liver microsomes assessed as half life at 10 uM measured upto 24 hrs in the presence of NADPH by UPLC analysis; assay type: ADME, Microsome
[9] = Cytotoxicity against HEK293 cells assessed as reduction in cell viability measured after 24 hrs by MTS assay; assay type: toxicity, cell-based; conditions: human, read-out: LD50
P815B [10] = assay: Induction of ROS generation in mouse P815B cells assessed as increase in H2O2 concentration at high concentration measured upto 6 hrs by bioluminescent ROS-Glo H2O2 assay; assay type: functional, cell-based
[11] = target: T2, Indoleamine 2,3-dioxygenase 1 (Homo sapiens, UniProt P14902); assay: Inhibition of human IDO1 in potassium phosphate buffer at pH 6.5 using L-tryptophan as substrate incubated for 8 mins
T2 sequence (P14902 whole entry): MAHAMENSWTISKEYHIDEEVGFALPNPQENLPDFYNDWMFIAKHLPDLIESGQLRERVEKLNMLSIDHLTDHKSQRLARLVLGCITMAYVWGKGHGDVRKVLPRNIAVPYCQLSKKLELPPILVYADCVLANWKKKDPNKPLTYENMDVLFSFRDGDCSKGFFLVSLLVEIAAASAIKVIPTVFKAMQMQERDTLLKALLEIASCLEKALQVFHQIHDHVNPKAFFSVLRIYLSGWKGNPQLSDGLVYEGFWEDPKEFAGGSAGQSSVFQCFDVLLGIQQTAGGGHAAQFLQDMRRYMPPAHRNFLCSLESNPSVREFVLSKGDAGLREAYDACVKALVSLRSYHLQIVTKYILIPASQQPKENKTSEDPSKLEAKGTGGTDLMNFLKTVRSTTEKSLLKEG

[12] = target: T2, Indoleamine 2,3-dioxygenase 1; assay: Inhibition of human IDO1 expressed in mouse P815B cells using L-tryptophan as substrate incubated for 24 hrs by UPLC analysis; assay type: cell-based
A 172 [13] = assay: Cytotoxicity against human A 172 cells assessed as reduction in cell viability measured after 24 hrs by MTS assay; assay type: functional; conditions: read-out: LD50 (the source's name)
[14] = target: T1, Tryptophan 2,3-dioxygenase; assay: Inhibition of human TDO2 expressed in Escherichia coli BL21-DE3 rosetta cells at pH 6.5 potassium phosphate buffer using L-tryptophan as substrate measured after 15 mins
[15] = Induction of apoptosis in mouse P815B cells assessed as early apoptotic cells at 10 uM measured after 24 hrs by Annexin V-FITC/PI staining based flow cytometry method relative to control; assay type: functional
[16] = Induction of apoptosis in mouse P815B cells assessed as apoptotic cells at 10 uM measured after 6 hrs by Annexin V-FITC/PI staining based flow cytometry method relative to control; assay type: functional
[17] = Induction of apoptosis in mouse P815B cells assessed as necrotic cells at 5 uM measured after 24 hrs by Annexin V-FITC/PI staining based flow cytometry method relative to control; assay type: functional
[18] = Induction of cell cycle arrest in mouse P815B cells assessed as accumulation of cells at S phase at 5 uM measured after 24 hrs by PI staining based flow cytometry method (reference value: 45.0%); assay type: functional
[19] = Induction of cell cycle arrest in mouse P815B cells assessed as accumulation of cells at G2 phase at 5 uM measured after 24 hrs by PI staining based flow cytometry method (reference value: 14.6%); assay type: functional
[20] = Induction of apoptosis in mouse P815B cells assessed as viable cells at 1 uM measured after 24 hrs by Annexin V-FITC/PI staining based flow cytometry method relative to control; assay type: functional; conditions: read-out: Activity
[21] = Induction of apoptosis in mouse P815B cells assessed as viable cells at 5 uM measured after 24 hrs by Annexin V-FITC/PI staining based flow cytometry method relative to control; assay type: functional; conditions: read-out: Activity
[22] = Induction of apoptosis in mouse P815B cells assessed as late apoptotic cells at 5 uM measured after 24 hrs by Annexin V-FITC/PI staining based flow cytometry method relative to control; assay type: functional
[23] = Induction of apoptosis in mouse P815B cells assessed as early apoptotic cells at 5 uM measured after 24 hrs by Annexin V-FITC/PI staining based flow cytometry method relative to control; assay type: functional
[24] = Induction of apoptosis in mouse P815B cells assessed as necrotic cells at 10 uM measured after 6 hrs by Annexin V-FITC/PI staining based flow cytometry method relative to control; assay type: functional
[25] = Induction of cell cycle arrest in mouse P815B cells assessed as accumulation of cells at G1 phase at 5 uM measured after 24 hrs by PI staining based flow cytometry method (reference value: 42.8%); assay type: functional
[26] = Induction of apoptosis in mouse P815B cells assessed as early apoptotic cells at 1 uM measured after 24 hrs by Annexin V-FITC/PI staining based flow cytometry method relative to control; assay type: functional
[27] = Induction of apoptosis in mouse P815B cells assessed as late apoptotic cells at 10 uM measured after 24 hrs by Annexin V-FITC/PI staining based flow cytometry method relative to control; assay type: functional
[28] = Induction of apoptosis in mouse P815B cells assessed as necrotic cells at 10 uM measured after 24 hrs by Annexin V-FITC/PI staining based flow cytometry method relative to control; assay type: functional
[29] = Induction of apoptosis in mouse P815B cells assessed as viable cells at 10 uM measured after 24 hrs by Annexin V-FITC/PI staining based flow cytometry method relative to control; assay type: functional; conditions: read-out: Activity
[30] = Induction of apoptosis in mouse P815B cells assessed as late apoptotic cells at 1 uM measured after 24 hrs by Annexin V-FITC/PI staining based flow cytometry method relative to control; assay type: functional
[31] = Induction of apoptosis in mouse P815B cells assessed as necrotic cells at 1 uM measured after 24 hrs by Annexin V-FITC/PI staining based flow cytometry method relative to control; assay type: functional

c1ccc2c(-c3cnc4n[se]nc4c3)c[nH]c2c1 showed a CC50 (A 172 [1]) greater than 80 µM, an IC50 [2] of 0.171 µM and a CC50 at 6 h [3] greater than 80 µM. The Activity (P815B [4]) was “Toxic”, the logKw [5] was 2.9 and the CC50 [6] was greater than 80 µM. For the same compound, the CC50 [7] was 30 µM, the half-life at 10 µM [8] was 28.3 min and the CC50 at 24 h [9] was greater than 80 µM. For the same compound, the Activity (P815B [10]) was “Active”, the IC50 [11] was greater than 100 µM and the IC50 [12] was greater than 100 µM. For the same compound, the CC50 (A 172 [13]) was greater than 80 µM and the IC50 [14] was 4.5 µM.
In the case of c1ccc2c(-c3ccc4n[se]nc4c3)c[nH]c2c1, the Activity [15] is reported as 2.64%, the CC50 (A 172 [1]) is reported as 30 µM and the Activity [16] is reported as 30.4%. The IC50 [2] was 0.094 µM, the CC50 at 6 h [3] was 30 µM and the Activity [17] was 1.46%. The logKw [5] was 3.5, the CC50 [6] was 30 µM and the Activity [18] was 41.3%. It also gave an Activity [19] of 11.6%, a viability at 1 µM [20] of 81% and a CC50 [7] of 3 µM. The viability at 5 µM [21] was 79.2%, the Activity [22] was 14.2% and the half-life at 10 µM [8] was 70.2 min. For the same compound, the CC50 at 24 h [9] was 10 µM, the Activity (P815B [10]) was “Active” and the Activity [23] was 5.19%. It also gave an Activity [24] of 27.6%, an IC50 [11] greater than 100 µM and an Activity [25] of 47.3%. The IC50 [12] was greater than 100 µM, the Activity [26] was 1.15% and the Activity [27] was 44.1%. The CC50 (A 172 [13]) was 30 µM, the Activity [28] was 0.55% and the IC50 [14] was 2.5 µM. It also gave a viability at 10 µM [29] of 52.7%, an Activity [30] of 16.6% and an Activity [31] of 1.24%.
c1ccc2c(-c3ccc4nonc4c3)c[nH]c2c1 gave a CC50 (A 172 [1]) of 30 µM, an IC50 [2] of 0.051 µM and a CC50 at 6 h [3] greater than 80 µM. The logKw [5] was 4.1, the CC50 [6] was 10 µM and the CC50 [7] was 10 µM. For the same compound, the half-life at 10 µM [8] was 24.6 min, the CC50 at 24 h [9] was greater than 80 µM and the IC50 [11] was greater than 100 µM. The IC50 [12] was greater than 100 µM, the CC50 (A 172 [13]) was 30 µM and the IC50 [14] was 3.4 µM.
c1ccc2c(-c3cnc4nsnc4c3)c[nH]c2c1 showed a CC50 (A 172 [1]) greater than 80 µM, an IC50 [2] of 0.082 µM and a CC50 at 6 h [3] greater than 80 µM. The Activity (P815B [4]) was “Toxic”, the logKw [5] was 3.3 and the CC50 [6] was greater than 80 µM. For the same compound, the CC50 [7] was 30 µM, the half-life at 10 µM [8] was 22 min and the CC50 at 24 h [9] was greater than 80 µM. It also gave an IC50 [11] greater than 100 µM, an IC50 [12] greater than 100 µM and a CC50 (A 172 [13]) greater than 80 µM. For the same compound, the IC50 [14] was 4.7 µM.
Work on c1ccc2c(-c3ccc4nsnc4c3)c[nH]c2c1 yielded a CC50 (A 172 [1]) of 30 µM, an IC50 [2] of 0.129 µM and a CC50 at 6 h [3] greater than 80 µM. It also gave a logKw [5] of 4, a CC50 [6] of 30 µM and a CC50 [7] of 10 µM. The half-life at 10 µM [8] was 35.6 min, the CC50 at 24 h [9] was greater than 80 µM and the IC50 [11] was greater than 100 µM. The IC50 [12] was greater than 100 µM, the CC50 (A 172 [13]) was 30 µM and the IC50 [14] was 3 µM.

Reference: ChEMBL document CHEMBL5143514, “Investigation of chalcogen bioisosteric replacement in a series of heterocyclic inhibitors of tryptophan 2,3-dioxygenase” (Eur J Med Chem, 2022)
